According to US11261186B2, “Biaryl derivative as GPR120 agonist” (LG CHEM, LTD., priority 2014, dated 2022):

Biological target: T1, hGPR120 (Homo sapiens, UniProt Q5NUL3)
T1 construct: expressed in transfected cells; host or cells: CHO-K1
T1 sequence (Q5NUL3 1-361): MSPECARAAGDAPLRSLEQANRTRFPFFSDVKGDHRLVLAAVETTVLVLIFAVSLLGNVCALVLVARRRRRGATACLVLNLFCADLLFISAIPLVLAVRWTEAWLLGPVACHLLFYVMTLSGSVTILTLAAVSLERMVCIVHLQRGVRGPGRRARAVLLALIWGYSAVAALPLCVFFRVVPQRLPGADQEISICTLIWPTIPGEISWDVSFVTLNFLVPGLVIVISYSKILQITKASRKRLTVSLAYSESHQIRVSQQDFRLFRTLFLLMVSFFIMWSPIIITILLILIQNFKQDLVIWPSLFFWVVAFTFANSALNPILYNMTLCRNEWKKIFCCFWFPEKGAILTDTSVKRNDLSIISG
Assay: Measurement of Activity of GPR120 Agonist (Cell-Based Assay), Calcium 5 dye fluorescence
Details: CHO-K1 cells expressing Ga16 and hGPR120
Experimental: CHO-K1 cells expressing Ga16 and hGPR120 were dispensed into each well of a 96-well plate (3×10^4 cells/100 μl/well) and then incubated in 5% CO2, 37° C. incubator for 18 hours. Each well was treated with 100 μl of Calcium 5 dye (Molecular Devices) solution including 2% DMSO and then incubated in 5% CO2, 37° C. incubator for 1 hour. Serially diluted GPR120 agonists were prepared to a final concentration of 0.5% DMSO in a 96-well plate. Each well was treated with 50 μl of the agonist compounds using Plexstation II, and then fluorescence was measured at Ex 485 nm and Em 525 nm.
Fluorescence increased by the serially diluted GPR120 agonists is calculated as a relative percent (%) value based on the fluorescence represented by the treatment of 1% DMSO only. […] The calculation of measurement was carried out by using statistical software (Prizm).
Activity is denoted based on the following criteria: […]

Row | SMILES | EC50 [nM]
1 | CCSc1ncccc1-c1cc(F)c(C(C)CCCC(=O)O)c(F)c1 (stereo not drawn) [Example 42, 5-[4-(2-ethylsulfanyl-3-pyridyl)-2,6-difluoro-phenyl]hexanoic acid] | < 200
2 | CCCSc1ncccc1-c1cc(F)c(C(C)CCCC(=O)O)c(F)c1 (stereo not drawn) [Example 43, 5-[2,6-difluoro-4-(2-propylsulfanyl-3-pyridyl)-phenyl]hexanoic acid] | < 200
3 | CC(C)Oc1ncccc1-c1cc(F)c(C(C)CCCC(=O)O)c(F)c1 (stereo not drawn) [Example 46, 5-[2,6-difluoro-4-(2-isopropoxy-3-pyridyl)phenyl]hexanoic acid] | < 200
4 | CC(CCCC(=O)O)c1c(F)cc(-c2cccnc2SC2CCC2)cc1F (stereo not drawn) [Example 48, 5-[4-(2-cyclobutylsulfanyl-3-pyridyl)-2,6-difluoro-phenyl]hexanoic acid] | < 200
5 | CC(CCCC(=O)O)c1c(F)cc(-c2cccnc2SC2CCCC2)cc1F (stereo not drawn) [Example 49, 5-[4-(2-cyclopentylsulfanyl-3-pyridyl)-2,6-difluoro-phenyl]hexanoic acid] | < 200
6 | CC(C)Sc1ncccc1-c1cc(F)c(C(C)CCCC(=O)O)c(F)c1 (stereo not drawn) [Example 50, 5-[2,6-difluoro-4-(2-isopropylsulfanyl-3-pyridyl)-phenyl]hexanoic acid] | < 200
7 | CC(CCCC(=O)O)c1c(F)cc(-c2cccnc2OC2CCCC2)cc1F (stereo not drawn) [Example 51, 5-[4-(2-cyclopentoxy-3-pyridyl)-2,6-difluoro-phenyl]hexanoic acid] | < 200
8 | CC(CCCC(=O)O)c1c(F)cc(-c2cccc(NC3CCCC3)c2)cc1F (stereo not drawn) [Example 52, 5-(3′-cyclopentylamino-3,5-difluoro-biphenyl-4-yl)-hexanoic acid] | < 200
9 | CC(C)Sc1cccc(-c2cc(F)c(C(C)CCCC(=O)O)c(F)c2)n1 (stereo not drawn) [Example 53, 5-[2,6-difluoro-4-(6-isopropylsulfanyl-2-pyridyl)-phenyl]hexanoic acid] | < 200
10 | CC(CCCC(=O)O)c1c(F)cc(-c2cccc(SC3CCCC3)n2)cc1F (stereo not drawn) [Example 54, 5-[4-(6-cyclopentylsulfanyl-2-pyridyl)-2,6-difluoro-phenyl]hexanoic acid] | < 200
11 | CCCSc1cccc(-c2cc(F)c(C(C)CCCC(=O)O)c(F)c2)n1 (stereo not drawn) [Example 55, 5-[2,6-difluoro-4-(6-propylsulfanyl-2-pyridyl)phenyl]hexanoic acid] | < 200
12 | CC(CCCC(=O)O)c1c(F)cc(-c2cccc(OC3CCCC3)n2)cc1F (stereo not drawn) [Example 56, 5-[4-(6-cyclopentoxy-2-pyridyl)-2,6-difluoro-phenyl]hexanoic acid] | < 200
13 | CC(CCCC(=O)O)c1c(F)cc(-c2cccnc2OC2CCC2)cc1F (stereo not drawn) [Example 59, 5-[4-(2-cyclobutoxy-3-pyridyl)-2,6-difluoro-phenyl]hexanoic acid] | < 200
14 | CC(CCCC(=O)O)c1c(F)cc(-c2cccnc2OCC2CC2)cc1F (stereo not drawn) [Example 60, 5-[4-(2-cyclopropylmethoxy-3-pyridyl)-2,6-difluoro-phenyl]hexanoic acid] | < 200
15 | Oc1cc(COc2c(F)cc(-c3cccnc3SC3CCC3)cc2F)on1 [Example 61, 5-[[4-(2-cyclobutylsulfanyl-3-pyridyl)-2,6-difluoro-phenoxy]methyl]isoxazol-3-ol] | < 200
16 | CCCSc1ncccc1-c1ccc(CCCc2noc(=O)[nH]2)cc1 [Example 63, 3-[3-[4-(2-propylsulfanyl-3-pyridyl)phenyl]propyl]-4H-1,2,4-oxadiazol-5-one] | 2000 to 20000
17 | CCCSc1ncccc1-c1ccc(CCCc2noc(=S)[nH]2)cc1 [Example 64, 3-[3-[4-(2-propylsulfanyl-3-pyridyl)phenyl]propyl]-4H-1,2,4-oxadiazol-5-thione] | 2000 to 20000

Row | SMILES | EC50 [nM]
18 | Oc1cc(COc2c(F)cc(-c3cccnc3SC3CCCC3)cc2F)on1 [Example 65, 5-[[4-(2-cyclopentylsulfanyl-3-pyridyl)-2,6-difluoro-phenoxy]methyl]isoxazol-3-ol] | < 200
19 | CCCSc1ncccc1-c1cc(F)c(OCc2cc(O)no2)c(F)c1 [Example 66, 5-[[2,6-difluoro-4-(2-propylsulfanyl-3-pyridyl)phenoxy]methyl]isoxazol-3-ol] | < 200
20 | Oc1cc(COc2c(F)cc(-c3cccnc3OC3CCCC3)cc2F)on1 [Example 67, 5-[[4-[2-(cyclopentoxy)-3-pyridyl]-2,6-difluoro-phenoxy]methyl]isoxazol-3-ol] | < 200
21 | CC(C)Sc1ncccc1-c1cc(F)c(OCc2cc(O)no2)c(F)c1 [Example 68, 5-[[2,6-difluoro-4-(2-isopropylsulfanyl-3-pyridyl)phenoxy]methyl]isoxazol-3-ol] | < 200
22 | CC(C)Oc1ncccc1-c1cc(F)c(OCc2cc(O)no2)c(F)c1 [Example 69, 5-[[2,6-difluoro-4-(2-isopropoxy-3-pyridyl)phenoxy]methyl]isoxazol-3-ol] | < 200
23 | CC(C)Sc1cccc(-c2cc(F)c(OCc3cc(O)no3)c(F)c2)n1 [Example 70, 5-[[2,6-difluoro-4-(6-isopropylsulfanyl-2-pyridyl)phenoxy]methyl]isoxazol-3-ol] | < 200
24 | CC(C)Oc1cccc(-c2cc(F)c(OCc3cc(O)no3)c(F)c2)n1 [Example 71, 5-[[2,6-difluoro-4-(6-isopropoxy-2-pyridyl)phenoxy]methyl]isoxazol-3-ol] | < 200
25 | Oc1cc(COc2c(F)cc(-c3cccc(OCC4CC4)n3)cc2F)on1 [Example 72, 5-[[4-[6-(cyclopropylmethoxy)-2-pyridyl]-2,6-difluoro-phenoxy]methyl]isoxazol-3-ol] | < 200
26 | CCCOc1cccc(-c2cc(F)c(OCc3cc(O)no3)c(F)c2)n1 [Example 73, 5-[[2,6-difluoro-4-(6-propoxy-2-pyridyl)phenoxy]methyl]isoxazol-3-ol] | < 200
27 | CCCOc1ncccc1-c1cc(F)c(OCc2cc(O)no2)c(F)c1 [Example 74, 5-[[2,6-difluoro-4-(2-propoxy-3-pyridyl)phenoxy]methyl]isoxazol-3-ol] | < 200
28 | Oc1cc(COc2c(F)cc(-c3cccnc3OC3CCC3)cc2F)on1 [Example 76, 5-[[4-[2-(cyclobutoxy)-3-pyridyl]-2,6-difluoro-phenoxy]methyl]isoxazol-3-ol] | < 200
29 | Oc1cc(COc2c(F)cc(-c3cccnc3OCC3CCC3)cc2F)on1 [Example 77, 5-[[4-[2-(cyclobutylmethoxy)-3-pyridyl]-2,6-difluoro-phenoxy]methyl]isoxazol-3-ol] | < 200
30 | Oc1ccc(COc2c(F)cc(-c3cccnc3OC3CCCC3)cc2F)cn1 [Example 79, 5-[[4-[2-(cyclopentoxy)-3-pyridyl]-2,6-difluoro-phenoxy]methyl]pyridin-2-ol] | 2000 to 20000
31 | Oc1cc(CSc2ccc(-c3cccnc3OC3CCCC3)cc2)on1 [Example 81, 5-[[4-[2-(cyclopentoxy)-3-pyridyl]phenyl]sulfanylmethyl]isoxazol-3-ol] | < 200
32 | Oc1cc(CSc2c(F)cc(-c3cccnc3OC3CCCC3)cc2F)on1 [Example 83, 5-[[4-[2-(cyclopentoxy)-3-pyridyl]-2,6-difluoro-phenyl]sulfanylmethyl]isoxazol-3-ol] | < 200
33 | Oc1cc(CNc2c(F)cc(-c3cccnc3OC3CCCC3)cc2F)on1 [Example 84, 5-[[4-[2-(cyclopentoxy)-3-pyridyl]-2,6-difluoro-anilino]methyl]isoxazol-3-ol] | < 200
